Laboratory results published in US9234000B2, “Benzylamine derivatives as inhibitors of plasma kallikrein” (KalVista Pharmaceuticals Limited, priority 2011, dated 2016).
Where two headings read alike, the source gives them in different places.

Tests used:
Human KLK1 = Human KLK1 (Homo sapiens (Human), UniProt P06870); assay: Determination of the IC50 for KLK1; assay type: biochemical; conditions: Human KLK1, 37° C., substrate H-DVal-Leu-Arg-AFC
Method: Determination of the IC50 for KLK1
(§1) KLK1 inhibitory activity in vitro was determined using standard published methods (see e.g. Johansen et al., Int. J. Tiss. Reac. 1986, 8, 185; Shori et al., Biochem. Pharmacol., 1992, 43, 1209; Stürzebecher et al., Biol. Chem. Hoppe-Seyler, 1992, 373, 1025). Human KLK1 (Callbiochem) was incubated at 37° C. with the fluorogenic substrate H-DVal-Leu-Arg-AFC and various concentrations of the test compound. Residual enzyme activity (initial rate of reaction) was determined by measuring the change in optical absorbance at 410 nm and the IC50 value for the test compound was determined.

Human plasma kallikrein = Human plasma kallikrein (Homo sapiens (Human), UniProt P03952); assay: Determination of the IC50 for plasma kallikrein; assay type: biochemical; conditions: 37° C., read-out: IC50 (human PKal)
Human plasma kallikrein, sequence (P03952 391-638): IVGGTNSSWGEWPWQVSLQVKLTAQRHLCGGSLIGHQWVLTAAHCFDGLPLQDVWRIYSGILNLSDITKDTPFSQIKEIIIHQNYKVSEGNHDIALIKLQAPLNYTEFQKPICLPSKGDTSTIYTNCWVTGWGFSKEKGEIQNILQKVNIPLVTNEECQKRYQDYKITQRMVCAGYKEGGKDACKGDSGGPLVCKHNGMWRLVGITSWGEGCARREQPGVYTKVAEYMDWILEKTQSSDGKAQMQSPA
Human plasma kallikrein, sequence (P03952 20-390 partner): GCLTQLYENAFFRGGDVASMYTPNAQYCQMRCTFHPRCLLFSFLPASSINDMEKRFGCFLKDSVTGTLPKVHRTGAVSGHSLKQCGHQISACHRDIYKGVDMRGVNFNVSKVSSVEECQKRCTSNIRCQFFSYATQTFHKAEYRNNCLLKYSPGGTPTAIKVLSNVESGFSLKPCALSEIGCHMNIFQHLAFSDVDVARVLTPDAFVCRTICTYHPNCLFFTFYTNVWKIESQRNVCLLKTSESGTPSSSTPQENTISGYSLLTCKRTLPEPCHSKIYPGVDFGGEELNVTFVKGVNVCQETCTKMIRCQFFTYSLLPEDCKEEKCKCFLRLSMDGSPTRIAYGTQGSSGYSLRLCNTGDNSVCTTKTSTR
Method: Determination of the IC50 for Plasma Kallikrein
as §1, with “Plasma kallikrein” for “KLK1”, “Stiirzebecher” for “Stürzebecher”, “plasma kallikrein (Protogen)” for “KLK1 (Callbiochem)”, “H-DPro-Phe-Arg-AFC” for “H-DVal-Leu-Arg-AFC”

[1] = fluorogenic substrate H-DPro-Phe-Arg-AFC

Human KLK1, sequence (P06870 25-262): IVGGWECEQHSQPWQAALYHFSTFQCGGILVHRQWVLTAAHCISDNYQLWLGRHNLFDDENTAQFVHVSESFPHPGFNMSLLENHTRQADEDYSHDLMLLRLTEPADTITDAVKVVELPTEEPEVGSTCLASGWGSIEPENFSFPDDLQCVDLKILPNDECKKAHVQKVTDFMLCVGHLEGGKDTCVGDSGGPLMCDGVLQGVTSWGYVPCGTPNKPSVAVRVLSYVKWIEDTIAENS

SMILES | IC50 (Human KLK1; Table 12) | IC50 (Human plasma kallikrein; [1]) | IC50 (Human KLK1; Table 13) | IC50 (Human plasma kallikrein; substrate H-DPro-Phe-Arg-AFC)
CCOc1ccc(C[C@@H](NC(=O)CC)C(=O)N[C@@H](Cc2ccccc2)C(=O)NCc2ccc(CN)c(F)c2)cc1 [Example 7, (S)-N-(4-Aminomethyl-3-fluoro-benzyl)-2-[(R)-3-(4-ethoxy-phenyl)-2-propionylamino-propionylamino]-3-phenyl-propionamide] | > 1 µM | 0.074 µM |  | 
CCOc1ccc(C[C@H](C(=O)N[C@@H](Cc2ccccc2)C(=O)NCc2ccc(CN)cc2)N(C)C)cc1 [Example 13, (R)-N-[(S)-1-(4-Aminomethyl-benzylcarbamoyl)-2-phenyl-ethyl]-2-dimethylamino-3-(4-ethoxy-phenyl)-propionamide] |  | 10 µM |  | 
CCOc1ccc(C[C@@H](NC(=O)CC)C(=O)N[C@@H](Cc2ccc(Cl)c(Cl)c2)C(=O)NCc2ccc(CN)cc2)cc1 [Example 16, (S)-N-(4-Aminomethyl-benzyl)-3-(3,4-dichloro-phenyl)-2-[(R)-3-(4-ethoxy-phenyl)-2-propionylamino-propionylamino]-propionamide] | 4.9 µM | 0.053 µM |  | 
CCC(=O)N[C@H](Cc1ccc(C(F)(F)F)cc1)C(=O)N[C@@H](Cc1ccc(Cl)c(Cl)c1)C(=O)NCc1ccc(CN)cc1 [Example 19] | > 10 µM | 10 µM |  | 
C[C@@H](NC(=O)c1ccccc1)C(=O)N[C@@H](Cc1ccccc1)C(=O)NCc1ccc(CN)cc1 [Example 22, N-{(R)-1-[(S)-1-(4-Aminomethyl-benzylcarbamoyl)-2-phenyl-ethylcarbamoyl]-ethyl}-benzamide] | 9.6 µM | 10 µM |  | 
CCOc1ccc(C[C@@H](NC(=O)CC)C(=O)N[C@@H](Cc2ccccc2)C(=O)NCc2ccc(CN)c(Cl)c2)cc1 [Example 23, (S)-N-(4-Aminomethyl-3-chloro-benzyl)-2-[(R)-3-(4-ethoxy-phenyl)-2-propionylamino-propionylamino]-3-phenyl-propionamide] | 5.6 µM | 0.031 µM |  | 
CC(C)C[C@@H](NCC(=O)O)C(=O)N[C@@H](Cc1ccccc1)C(=O)NCc1ccc(CN)cc1 [Example 28, {(R)-1-[(S)-1-(4-Aminomethyl-benzylcarbamoyl)-2-phenyl-ethylcarbamoyl]-3-methyl-butylamino}-acetic acid] | > 10 µM | 8.9 µM |  | 
COC(=O)CN[C@H](CC1CCCCC1)C(=O)N[C@@H](Cc1ccccc1)C(=O)NCc1ccc(CN)cc1 [Example 46, {(R)-1-[(S)-1-(4-Aminomethyl-benzylcarbamoyl)-2-phenyl-ethylcarbamoyl]-2-cyclohexyl-ethylamino}-acetic acid methyl ester] | > 10 µM | 1.2 µM |  | 
COC(=O)CN[C@H](CC1CCCCC1)C(=O)N[C@@H](Cc1ccccc1)C(=O)NCc1ccc(CN)cc1 [Example 47, {(R)-1-[(S)-1-(4-Aminomethyl-benzylcarbamoyl)-2-phenyl-ethylcarbamoyl]-2-cyclohexyl-ethylamino}-acetic acid methyl ester] | > 10 µM | 2.1 µM |  | 
CN(CC(N)=O)[C@H](CC1CCCCC1)C(=O)N[C@@H](Cc1ccccc1)C(=O)NCc1ccc(CN)cc1 [Example 48, (R)-N-[(S)-1-(4-Aminomethyl-benzylcarbamoyl)-2-phenyl-ethyl]-2-(carbamoylmethyl-methyl-amino)-3-cyclohexyl-propionamide] | > 10 µM | 4.7 µM |  | 
CN(CCO)[C@H](CC1CCCCC1)C(=O)N[C@@H](Cc1ccccc1)C(=O)NCc1ccc(CN)cc1 [Example 49, (R)-N-[(S)-1-(4-Aminomethyl-benzylcarbamoyl)-2-phenyl-ethyl]-3-cyclohexyl-2-[(2-hydroxy-ethyl)-methyl-amino]-propionamide] | > 10 µM | 2.2 µM |  | 
NCc1ccc(CNC(=O)[C@H](Cc2ccccc2)NC(=O)[C@@H](CC2CCCCC2)NCC(N)=O)cc1 [Example 50, (R)-N-[(S)-1-(4-Aminomethyl-benzylcarbamoyl)-2-phenyl-ethyl]-2-(carbamoylmethyl-amino)-3-cyclohexyl-propionamide] | 5 µM | 4.3 µM |  | 
CCOc1ccc(C[C@@H](N)C(=O)N[C@@H](C(=O)NCc2ccc(CN)cc2)[C@@H](O)c2ccccc2)cc1 [Example 60, (R)-2-Amino-N-[(1R,2S)-1-(4-aminomethyl-benzylcarbamoyl)-2-hydroxy-2-phenyl-ethyl]-3-(4-ethoxy-phenyl)-propionamide] |  | 10 µM |  | 
CCOc1ccc(C[C@@H](NC(=O)CC)C(=O)N[C@@H](C(=O)NCc2ccc(CN)cc2)[C@@H](O)c2ccccc2)cc1 [Example 62, (2R,3S)-N-(4-Aminomethyl-benzyl)-2-[(R)-3-(4-ethoxy-phenyl)-2-propionylamino-propionylamino]-3-hydroxy-3-phenyl-propionamide] |  | ≥ 10 µM |  | 
CCOc1ccc(C[C@@H](NC(=O)CC)C(=O)N(CC)[C@@H](Cc2ccccc2)C(=O)NCc2ccc(CN)cc2)cc1 [Example 65, (S)-N-(4-Aminomethyl-benzyl)-2-{[(R)-3-(4-ethoxy-phenyl)-2-propionylamino-propionyl]-ethyl-amino}-3-phenyl-propionamide] |  | ≥ 10 µM |  | 
CCOc1ccc(C[C@@H](C(=O)N[C@@H](Cc2ccccc2)C(=O)NCc2ccc(CN)cc2)N(C)C(=O)CC)cc1 [Example 66, (S)-N-(4-Aminomethyl-benzyl)-2-[(S)-3-(4-ethoxy-phenyl)-2-(methyl-propionyl-amino)-propionylamino]-3-phenyl-propionamide] | 8.4 µM | 10 µM |  | 
CCOc1ccc(C[C@@H](NC(=O)NCc2ccccc2)C(=O)N[C@@H](Cc2ccccc2)C(=O)NCc2ccc(CN)cc2)cc1 [Example 68, (R)-N-[(S)-1-(4-Aminomethyl-benzylcarbamoyl)-2-phenyl-ethyl]-2-(3-benzyl-ureido)-3-(4-ethoxy-phenyl)-propionamide] |  |  | > 10 µM | 0.861 µM
CCOc1ccc(C[C@@H](NC(=O)Nc2ccccc2)C(=O)N[C@@H](Cc2ccccc2)C(=O)NCc2ccc(CN)cc2)cc1 [Example 69, (R)-N-[(S)-1-(4-Aminomethyl-benzylcarbamoyl)-2-phenyl-ethyl]-3-(4-ethoxy-phenyl)-2-(3-phenyl-ureido)-propionamide] |  |  | > 10 µM | 0.621 µM
CCOc1ccc(C[C@@H](NC(=O)C2CC2)C(=O)N[C@@H](Cc2ccccc2)C(=O)NCc2ccc(CN)cc2)cc1 [Example 74, Cyclopropanecarboxylic acid [(R)-1-[(S)-1-(4-aminomethyl-benzylcarbamoyl)-2-phenyl-ethylcarbamoyl]-2-(4-ethoxy-phenyl)-ethyl]-amide] |  |  | > 10 µM | 0.545 µM
CCCCCC(=O)N[C@H](Cc1ccc(OCC)cc1)C(=O)N[C@@H](Cc1ccccc1)C(=O)NCc1ccc(CN)cc1 [Example 76, Hexanoic acid [(R)-1-[(S)-1-(4-aminomethyl-benzylcarbamoyl)-2-phenyl-ethylcarbamoyl]-2-(4-ethoxy-phenyl)-ethyl]-amide] |  |  | 3.6 µM | 0.452 µM
CCOc1ccc(C[C@@H](NC(=O)NC(C)C)C(=O)N[C@@H](Cc2ccccc2)C(=O)NCc2ccc(CN)cc2)cc1 [Example 77, (R)-N-[(S)-1-(4-Aminomethyl-benzylcarbamoyl)-2-phenyl-ethyl]-3-(4-ethoxy-phenyl)-2-(3-isopropyl-ureido)-propionamide] |  |  | > 10 µM | 1.96 µM
